Data published in patent publication US12157741B2, “Macrocyclic inhibitors of DYRK1A” (DANA-FARBER CANCER INSTITUTE, INC., priority 2018, dated 2024).
Where two headings read alike, the source gives them in different places.

Legend:
[1] = biological target: various enzymes (Homo sapiens, UniProt Q9HCP0); conditions: CSNK1G1; 1 uM
Protocol: (§2) Ambit profiling from Eurofins (formerly Discoverx) was conducted in accordance with the manufacturer's instructions.

[2] = biological target: T1, various enzymes (Homo sapiens, UniProt Q13043); conditions: MST1; 1 uM
T1 sequence (Q13043 1-487): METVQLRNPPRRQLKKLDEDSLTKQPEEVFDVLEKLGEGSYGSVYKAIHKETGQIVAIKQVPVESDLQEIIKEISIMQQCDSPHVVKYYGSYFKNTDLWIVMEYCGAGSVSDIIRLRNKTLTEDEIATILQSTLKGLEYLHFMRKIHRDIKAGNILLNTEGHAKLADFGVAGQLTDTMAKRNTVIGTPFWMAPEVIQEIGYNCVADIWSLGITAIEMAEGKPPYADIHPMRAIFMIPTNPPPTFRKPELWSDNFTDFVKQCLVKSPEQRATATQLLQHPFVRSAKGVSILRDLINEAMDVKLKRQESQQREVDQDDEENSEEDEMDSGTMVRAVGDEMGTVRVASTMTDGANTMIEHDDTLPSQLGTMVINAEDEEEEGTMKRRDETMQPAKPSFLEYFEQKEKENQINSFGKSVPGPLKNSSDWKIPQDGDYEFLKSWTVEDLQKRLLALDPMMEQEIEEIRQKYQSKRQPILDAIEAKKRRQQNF
Protocol: as §2

[3] = biological target: various enzymes (Homo sapiens, UniProt Q9Y6E0); conditions: MST3; 1 uM
Protocol: as §2

[4] = biological target: T2, various enzymes (Homo sapiens, UniProt P00533, DEL747-752/P753S)
Protocol: as §2

[5] = biological target: various enzymes (Homo sapiens, UniProt P49336); conditions: CDK8; 1 uM
Protocol: as §2

[6] = biological target: various enzymes (Homo sapiens, UniProt Q16584); conditions: MLK3; 1 uM
Protocol: as §2

[7] = biological target: T3, various enzymes (Homo sapiens, UniProt O14757); conditions: CHEK1; 1 uM
T3 sequence (O14757 1-476): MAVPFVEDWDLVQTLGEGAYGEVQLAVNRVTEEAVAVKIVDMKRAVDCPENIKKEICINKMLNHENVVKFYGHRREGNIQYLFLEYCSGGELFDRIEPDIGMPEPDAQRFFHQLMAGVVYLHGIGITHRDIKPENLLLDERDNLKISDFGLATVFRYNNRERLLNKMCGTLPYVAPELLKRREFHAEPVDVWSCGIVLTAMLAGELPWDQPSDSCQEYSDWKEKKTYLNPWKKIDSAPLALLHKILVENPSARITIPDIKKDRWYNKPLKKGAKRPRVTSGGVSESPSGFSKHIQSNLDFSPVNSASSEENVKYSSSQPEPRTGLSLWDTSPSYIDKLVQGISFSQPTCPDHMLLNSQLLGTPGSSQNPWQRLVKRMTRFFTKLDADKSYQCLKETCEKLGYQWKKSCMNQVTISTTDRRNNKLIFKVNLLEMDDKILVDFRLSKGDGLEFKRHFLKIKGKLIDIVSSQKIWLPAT
Protocol: as §2

[8] = biological target: T4, various enzymes (Homo sapiens, UniProt Q9NWZ3); conditions: IRAK4; 1 uM
T4 sequence (Q9NWZ3 1-460): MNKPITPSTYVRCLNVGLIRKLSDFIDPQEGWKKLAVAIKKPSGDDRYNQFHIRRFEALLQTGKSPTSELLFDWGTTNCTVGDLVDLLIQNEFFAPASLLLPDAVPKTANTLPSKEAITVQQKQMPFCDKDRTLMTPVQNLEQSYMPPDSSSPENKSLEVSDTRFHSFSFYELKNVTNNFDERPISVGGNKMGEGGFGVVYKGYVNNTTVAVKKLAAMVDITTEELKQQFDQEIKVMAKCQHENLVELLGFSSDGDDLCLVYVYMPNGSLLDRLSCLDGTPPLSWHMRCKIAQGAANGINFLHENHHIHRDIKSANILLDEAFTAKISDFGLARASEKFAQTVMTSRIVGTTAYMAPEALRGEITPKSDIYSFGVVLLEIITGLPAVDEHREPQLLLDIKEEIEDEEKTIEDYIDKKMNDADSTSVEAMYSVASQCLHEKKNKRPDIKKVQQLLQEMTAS
Protocol: as §2

[9] = biological target: T5, various enzymes (Homo sapiens, UniProt O60285); conditions: ARK5; 1 uM
T5 sequence (O60285 1-661): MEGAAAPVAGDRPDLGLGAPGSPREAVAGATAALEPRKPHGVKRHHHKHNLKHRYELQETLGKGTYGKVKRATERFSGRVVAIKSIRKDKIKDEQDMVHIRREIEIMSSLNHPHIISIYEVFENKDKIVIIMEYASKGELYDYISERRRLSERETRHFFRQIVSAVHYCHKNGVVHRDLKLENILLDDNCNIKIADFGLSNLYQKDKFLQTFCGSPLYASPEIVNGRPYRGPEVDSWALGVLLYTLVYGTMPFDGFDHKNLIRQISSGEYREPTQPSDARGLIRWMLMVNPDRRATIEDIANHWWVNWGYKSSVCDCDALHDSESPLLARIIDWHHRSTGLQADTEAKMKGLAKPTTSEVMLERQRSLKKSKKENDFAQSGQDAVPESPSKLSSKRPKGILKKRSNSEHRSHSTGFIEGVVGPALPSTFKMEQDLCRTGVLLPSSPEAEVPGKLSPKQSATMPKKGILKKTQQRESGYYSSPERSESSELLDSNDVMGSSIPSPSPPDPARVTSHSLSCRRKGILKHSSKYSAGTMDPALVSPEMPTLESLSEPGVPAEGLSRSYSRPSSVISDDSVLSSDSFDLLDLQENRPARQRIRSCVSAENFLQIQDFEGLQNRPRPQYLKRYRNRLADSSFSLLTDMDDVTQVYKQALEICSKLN
Protocol: as §2

[10] = biological target: T2, various enzymes; assay type: binding; design: other: EGFR(L747-S752del, P753S); 1 uM; other: compound 1 uM
Protocol: (§1) Ambit profiling was conducted in accordance with the manufacturer's instructions.

[11] = tested on: various enzymes; assay type: binding; conditions: statement in words, compared with compound 48
Protocol: as §1

[12] = biological target: T6, DYRK1B (Homo sapiens, UniProt Q9Y463); test: Invitrogen Zlyte assay, DYRK1B; assay type: biochemical
T6 construct: purchased Invitrogen (assay run by the vendor)

[13] = biological target: various enzymes (Homo sapiens, UniProt P09769); assay type: binding; conditions: compound 1 uM
Protocol: as §1

various enzymes (Homo sapiens, UniProt P49336), sequence (P49336 whole entry): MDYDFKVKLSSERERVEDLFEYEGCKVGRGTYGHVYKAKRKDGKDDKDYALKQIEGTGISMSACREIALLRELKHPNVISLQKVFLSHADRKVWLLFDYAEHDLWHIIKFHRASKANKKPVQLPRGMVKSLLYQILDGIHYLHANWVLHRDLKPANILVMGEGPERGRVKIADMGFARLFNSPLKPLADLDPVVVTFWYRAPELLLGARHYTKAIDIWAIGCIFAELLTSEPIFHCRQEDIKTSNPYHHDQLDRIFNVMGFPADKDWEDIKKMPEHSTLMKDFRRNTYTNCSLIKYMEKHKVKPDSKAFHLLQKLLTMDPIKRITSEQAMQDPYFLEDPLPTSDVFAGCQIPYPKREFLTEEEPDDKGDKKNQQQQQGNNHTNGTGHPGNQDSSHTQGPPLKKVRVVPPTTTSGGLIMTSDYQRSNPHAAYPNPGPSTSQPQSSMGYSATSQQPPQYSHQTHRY
various enzymes (Homo sapiens, UniProt Q9HCP0), sequence (Q9HCP0 whole entry): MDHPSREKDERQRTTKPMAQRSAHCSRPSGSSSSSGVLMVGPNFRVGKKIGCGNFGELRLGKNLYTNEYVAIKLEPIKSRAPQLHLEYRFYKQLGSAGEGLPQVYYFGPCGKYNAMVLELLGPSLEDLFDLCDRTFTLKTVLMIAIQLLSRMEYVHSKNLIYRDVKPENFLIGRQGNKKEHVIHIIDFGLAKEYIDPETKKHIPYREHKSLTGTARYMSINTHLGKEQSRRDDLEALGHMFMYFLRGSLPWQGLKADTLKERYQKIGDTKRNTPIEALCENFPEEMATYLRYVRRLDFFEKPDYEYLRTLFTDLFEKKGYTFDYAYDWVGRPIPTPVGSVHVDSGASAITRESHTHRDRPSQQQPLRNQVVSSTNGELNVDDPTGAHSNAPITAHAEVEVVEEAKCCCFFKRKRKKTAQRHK
various enzymes (Homo sapiens, UniProt Q16584), sequence (Q16584 whole entry): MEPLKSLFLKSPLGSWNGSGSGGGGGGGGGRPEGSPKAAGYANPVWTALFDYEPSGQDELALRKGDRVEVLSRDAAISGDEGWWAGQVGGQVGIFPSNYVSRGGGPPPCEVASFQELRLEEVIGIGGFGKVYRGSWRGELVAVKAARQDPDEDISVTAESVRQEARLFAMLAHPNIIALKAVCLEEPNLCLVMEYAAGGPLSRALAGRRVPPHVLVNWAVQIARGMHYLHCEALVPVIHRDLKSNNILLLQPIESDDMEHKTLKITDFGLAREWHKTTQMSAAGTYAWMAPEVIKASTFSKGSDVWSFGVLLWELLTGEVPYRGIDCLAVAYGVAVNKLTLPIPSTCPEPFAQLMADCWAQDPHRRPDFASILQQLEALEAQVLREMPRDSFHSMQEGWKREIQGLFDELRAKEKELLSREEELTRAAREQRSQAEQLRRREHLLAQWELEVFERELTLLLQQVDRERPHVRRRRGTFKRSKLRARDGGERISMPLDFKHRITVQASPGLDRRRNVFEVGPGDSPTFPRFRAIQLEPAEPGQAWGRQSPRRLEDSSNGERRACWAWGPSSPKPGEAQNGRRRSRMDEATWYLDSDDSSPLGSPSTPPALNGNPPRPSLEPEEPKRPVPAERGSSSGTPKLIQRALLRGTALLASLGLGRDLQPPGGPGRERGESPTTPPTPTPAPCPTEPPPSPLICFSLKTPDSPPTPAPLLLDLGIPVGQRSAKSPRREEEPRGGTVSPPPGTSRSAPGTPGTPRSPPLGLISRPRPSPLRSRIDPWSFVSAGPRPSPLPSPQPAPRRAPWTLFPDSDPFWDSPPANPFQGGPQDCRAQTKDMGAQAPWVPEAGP
various enzymes (Homo sapiens, UniProt Q9Y6E0), sequence (Q9Y6E0 whole entry): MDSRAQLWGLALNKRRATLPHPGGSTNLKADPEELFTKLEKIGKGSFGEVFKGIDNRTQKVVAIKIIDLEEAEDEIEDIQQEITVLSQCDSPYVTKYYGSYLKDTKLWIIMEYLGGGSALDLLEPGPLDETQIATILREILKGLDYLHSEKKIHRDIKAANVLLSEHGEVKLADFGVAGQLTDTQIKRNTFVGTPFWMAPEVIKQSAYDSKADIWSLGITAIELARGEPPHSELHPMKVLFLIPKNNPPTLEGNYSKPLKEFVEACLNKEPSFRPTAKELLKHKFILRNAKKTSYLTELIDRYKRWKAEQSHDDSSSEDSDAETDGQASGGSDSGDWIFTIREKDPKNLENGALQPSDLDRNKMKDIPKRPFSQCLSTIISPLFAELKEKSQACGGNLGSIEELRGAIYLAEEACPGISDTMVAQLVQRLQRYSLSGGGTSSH
T6 sequence (Q9Y463 whole entry): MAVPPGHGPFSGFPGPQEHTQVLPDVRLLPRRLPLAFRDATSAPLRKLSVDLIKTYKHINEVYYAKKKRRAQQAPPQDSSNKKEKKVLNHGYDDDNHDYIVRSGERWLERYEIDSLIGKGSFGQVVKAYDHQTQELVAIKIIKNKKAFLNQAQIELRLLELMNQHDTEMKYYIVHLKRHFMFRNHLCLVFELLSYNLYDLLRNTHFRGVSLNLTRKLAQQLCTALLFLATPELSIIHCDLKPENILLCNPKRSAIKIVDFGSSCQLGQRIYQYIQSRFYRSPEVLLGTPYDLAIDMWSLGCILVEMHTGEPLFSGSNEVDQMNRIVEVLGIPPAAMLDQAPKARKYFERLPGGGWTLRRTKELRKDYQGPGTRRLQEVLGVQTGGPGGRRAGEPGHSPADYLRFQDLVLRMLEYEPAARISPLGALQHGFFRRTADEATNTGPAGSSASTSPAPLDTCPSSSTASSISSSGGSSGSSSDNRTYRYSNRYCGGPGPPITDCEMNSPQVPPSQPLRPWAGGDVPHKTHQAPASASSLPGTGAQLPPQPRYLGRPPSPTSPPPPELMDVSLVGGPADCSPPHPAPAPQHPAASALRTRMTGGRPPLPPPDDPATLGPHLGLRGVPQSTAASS
various enzymes (Homo sapiens, UniProt P09769), sequence (P09769 whole entry): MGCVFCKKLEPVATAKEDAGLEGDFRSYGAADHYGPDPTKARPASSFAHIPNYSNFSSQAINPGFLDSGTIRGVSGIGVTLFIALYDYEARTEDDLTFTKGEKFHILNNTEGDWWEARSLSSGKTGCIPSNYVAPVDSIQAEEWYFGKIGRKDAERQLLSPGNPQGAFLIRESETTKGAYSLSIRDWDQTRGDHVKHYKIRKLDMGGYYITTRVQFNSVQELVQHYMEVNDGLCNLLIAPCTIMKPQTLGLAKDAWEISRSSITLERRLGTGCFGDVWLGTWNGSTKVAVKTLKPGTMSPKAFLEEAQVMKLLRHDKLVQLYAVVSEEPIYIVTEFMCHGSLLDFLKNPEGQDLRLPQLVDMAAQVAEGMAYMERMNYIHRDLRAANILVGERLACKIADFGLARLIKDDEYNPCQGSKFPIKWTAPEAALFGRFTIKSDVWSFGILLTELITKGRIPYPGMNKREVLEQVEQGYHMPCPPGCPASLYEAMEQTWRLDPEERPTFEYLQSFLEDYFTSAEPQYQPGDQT

SMILES | Ambit profiling [1] | Ambit profiling [2] | Ambit profiling [3] | Ambit profiling ([4]; EGFR(L747-S752del, P753S), 1 uM) | Ambit profiling [5] | Ambit profiling [6] | Ambit profiling [7] | Ambit profiling [8] | Ambit profiling [9] | Ambit profiling: EGFR(L747-S752del, P753S) ([10]; compound 1 uM) | selectivity for DYRK1A (Ambit profiling, Table 4) [11] | Ambit profiling [4] | IC50 [12] | Ambit profiling: EGFR(L747-S752del, P753S) [10] | Ambit profiling: FGR [13]
CN1Cc2nn(C)cc2-c2cnc3[nH]cc(c3c2)-c2cnn(c2)CCCC1=O [Compound 41, (Z)-31,5-dimethyl-11H,21H,31H-5-aza-2(3,5)-pyrrolo[2,3-b]pyridina-1(4,1),3(4,3)-dipyrazolacyclononaphan-6-one] | 84 | 4.7 | 39 | 100 | 100 | 69 | 100 | 12 | 8.9 | – | – | – | – | – | –
CC(C)N1Cc2nn(C)cc2-c2cnc3[nH]cc(c3c2)-c2cn(nc2C(F)(F)F)CCCC1=O [Compound 45, (Z)-5-isopropyl-31-methyl-13-(trifluoromethyl)-11H,21H,31H-5-aza-2(3,5)-pyrrolo[2,3-b]pyridina-1(4,1),3(4,3)-dipyrazolacyclononaphan-6-one] | – | – | – | – | – | – | – | – | – | 15 | not as selective for DYRK1A as compound 48 | – | – | – | –
CN1Cc2nn(C)c(C#N)c2-c2cnc3[nH]cc(c3c2)-c2cn(nc2C(F)(F)F)CCCC1=O [Compound 48, (Z)-31,5-dimethyl-6-oxo-13-(trifluoromethyl)-11H,21H,31H-5-aza-2(3,5)-pyrrolo[2,3-b]pyridina-1(4,1),3(4,3)-dipyrazolacyclononaphane-35-carbonitrile] | 100 | 100 | 86 | – | 100 | 80 | 93 | 100 | 100 | – | – | 74 | – | – | –
COc1c2c(nn1C)CN(C(C)C)C(=O)CCCn1cc(c(C(F)(F)F)n1)-c1c[nH]c3ncc-2cc13 [Compound 50, (Z)-5-isopropyl-35-methoxy-31-methyl-13-(trifluoromethyl)-11H,21H,31H-5-aza-2(3,5)-pyrrolo[2,3-b]pyridina-1(4,1),3(4,3)-dipyrazolacyclononaphan-6-one] | – | – | – | – | – | – | – | – | – | – | – | – | 146 nM | 14 | 5.2
